Tests used:
Format in all cases: in vivo
panelists [1] = assay: Confirmation of umami in water (point score); settings: average point of 10 panelists, 0 no difference from control (water), 1 somewhat stronger, 2 stronger, 3 considerably stronger, 4 poor taste balance
Method: As a comparative product, a solution was prepared by dissolving the comparative product 1 (2-(2-benzyloxyethyl)pyridine) to have the same concentration. Water with no addition was prepared as a control product. Well-trained 10 panelists tasted the solutions prepared by dissolving any the invention products 1 to 6 and the comparative product 1 for organoleptic evaluation of umami.
Umami evaluation was based on the control product of water.

panelists [2] = assay: Confirmation of umami imparting and saltiness enhancing effect in 0.3 mass % sodium chloride (evaluation in words); settings: average of 5 panelists, Example 108
Method: An aqueous 0.3 mass % sodium chloride solution (control), and solutions of 2-(3-benzyloxypropyl)pyridine dissolved in a 0.3 mass % sodium chloride solution to have the concentration shown in Table 17 were prepared. As comparative products, an aqueous 0.3 mass % sodium chloride solution (control), and a solution of a comparative product, 2-(2-benzyloxyethyl)pyridine dissolved in a 0.3 mass % sodium chloride solution to have the same concentration were prepared. Well-trained 5 panelists tasted the solutions for organoleptic evaluation of umami impartment and saltiness enhancement.
An aqueous 0.3 mass % sodium chloride solution (control), and solutions of the invention product 201 or the reference product 202 dissolved in a 0.3 mass % sodium chloride solution to have the concentration as 2-(3-benzyloxypropyl)pyridine therein shown in the following Table 23 were prepared. Well-trained 5 panelists tasted the solutions for organoleptic evaluation of umami impartment and saltiness enhancement.

panelists [3] = assay: Confirmation of umami imparting and saltiness enhancing effect in 0.3 mass % sodium chloride (point score); settings: average point of 10 panelists vs control, 0 no change, 1 slightly higher, 2 higher, 3 considerably higher, 4 extremely higher umami and saltiness, 5 bitter as lacking balance
Method: An aqueous 0.3 mass % sodium chloride solution (control), and solutions of the invention products 1 to 6 each dissolved in a 0.3 mass % sodium chloride solution to have the concentration shown in Table 5 were prepared. As a comparative product, a solution was prepared by dissolving the comparative product 1 in 0.3 mass % sodium chloride. Well-trained 10 panelists tasted the solutions for organoleptic evaluation of umami impartment and saltiness enhancement.
Umami and saltiness scores are as follows, based on the aqueous 0.3 mass % sodium chloride solution as a control. Each sample was given any of a point 0, no change from control; 1, slightly higher umami and saltiness than control; 2, higher umami and saltiness than control; 3, considerably higher umami and saltiness than control; 4, extremely higher umami and saltiness than control; and 5, bitter as lacking balance of umami and saltiness.

panelists [4] = assay: Confirmation of umami in water (organoleptic evaluation of taste and flavor in words); settings: average of 5 panelists
Method: A solution was prepared by dissolving 2-(3-benzyloxypropyl)pyridine (invention product 101) in water to have a concentration shown in Table 15. As a comparative product, a solution was prepared by dissolving 2-(2-benzyloxyethyl)pyridine (comparative product 1 prepared in Comparative Example 1) to have the same concentration. Well-trained 5 panelists tasted the solutions and non-added water for organoleptic evaluation of taste and flavor.
The invention product 101 and the comparative product 1 were individually diluted with ethanol to have a proper concentration, and then further diluted with water to prepare an aqueous solution of 2-(3-benzyloxypropyl)pyridine (invention product 101 produced in Example 101) and that of 2-(2-benzyloxyethyl)pyridine (comparative product synthesized in Comparative Example 1) each having a concentration shown in the following Table 21. Well-trained panelists tasted the solution having a different concentration and non-added water for organoleptic evaluation in point of taste and flavor. […]

With `c1ccc(COCCc2ccccn2)cc1` [comparative product 1, 2-(2-benzyloxyethyl)pyridine, reference compound] the “umami (average point)” value (panelists [1]; 0.1 ppm in water) was 0.8, the “umami (average point)” value (panelists [1]; 1 ppm in water) was 1.5 and the “umami (average point)” value (panelists [1]; 2 ppb in water) was 0.0. The “umami (average point)” value (panelists [1]; 10 ppb in water) was 0.1, the “umami (average point)” value (panelists [1]; 20 ppm in water) was 2.2 and the “umami (average point)” value (panelists [1]; 200 ppm in water) was 2.8. For the same compound, the “umami (average point)” value (panelists [1]; 500 ppm in water) was 3.3, the “umami (average point)” value (panelists [1]; 2000 ppm in water) was 3.8 and the “Organoleptic Evaluation (umami impartment and saltiness enhancement)” value (panelists [2]; 0.1 ppm in 0.3 mass % sodium chloride solution) was “Umami as compared with control”. The “Organoleptic Evaluation (umami impartment and saltiness enhancement)” value (panelists [2]; 10 ppb in 0.3 mass % sodium chloride solution) was “Slightly umami as compared with control”, the “umami and saltiness (average point)” value (panelists [3]; 0.05 ppb in aqueous 0.3 mass % sodium chloride solution) was 0.0 and the “umami and saltiness (average point)” value (panelists [3]; 0.1 ppb in aqueous 0.3 mass % sodium chloride solution) was 0.0. The “umami and saltiness (average point)” value (panelists [3]; 0.1 ppm in aqueous 0.3 mass % sodium chloride solution) was 2.1, the “umami and saltiness (average point)” value (panelists [3]; 0.5 ppm in aqueous 0.3 mass % sodium chloride solution) was 3.0 and the “umami and saltiness (average point)” value (panelists [3]; 1 ppb in aqueous 0.3 mass % sodium chloride solution) was 0.6. The “umami and saltiness (average point)” value (panelists [3]; 2 ppm in aqueous 0.3 mass % sodium chloride solution) was 3.4, the “umami and saltiness (average point)” value (panelists [3]; 10 ppb in aqueous 0.3 mass % sodium chloride solution) was 1.5 and the “umami and saltiness (average point)” value (panelists [3]; 10 ppm in aqueous 0.3 mass % sodium chloride solution) was 4.2. For the same compound, the “umami and saltiness (average point)” value (panelists [3]; 50 ppm in aqueous 0.3 mass % sodium chloride solution) was 4.8, the “Organoleptic Evaluation Taste” value (panelists [4]; 0.1 ppm dissolved in water, Example 107) was “Slightly umami” and the “Organoleptic Evaluation Taste” value (panelists [4]; 0.1 ppm, diluted with ethanol, then with water, Reference Example 201) was “Slightly umami”. The “Organoleptic Evaluation Taste” value (panelists [4]; 1 ppm dissolved in water, Example 107) was “Weakly umami”, the “Organoleptic Evaluation Taste” value (panelists [4]; 1 ppm, diluted with ethanol, then with water, Reference Example 201) was “Weakly umami” and the “Organoleptic Evaluation Flavor” value (panelists [4]; 2 ppb dissolved in water, Example 107) was “Nothing at all”. The “Organoleptic Evaluation Flavor” value (panelists [4]; 2 ppb, diluted with ethanol, then with water, Reference Example 201) was “Nothing at all”, the “Organoleptic Evaluation Flavor” value (panelists [4]; 10 ppb dissolved in water, Example 107) was “Nothing at all” and the “Organoleptic Evaluation Flavor” value (panelists [4]; 10 ppb, diluted with ethanol, then with water, Reference Example 201) was “Nothing at all”. The “Organoleptic Evaluation Taste” value (panelists [4]; 200 ppm dissolved in water, Example 107) was “Strongly umami” and the “Organoleptic Evaluation Taste” value (panelists [4]; 200 ppm, diluted with ethanol, then with water, Reference Example 201) was “Strongly umami”.
